In US12251411B2, “Methods of treating endometrial cancer using hemp extract” (Ecofibre USA Inc., priority 2021, dated 2025):
pIC50: −log10 of the molar value. Like-named read-outs stand apart in the source and are kept apart here.

Tests used:
[1] = cited from earlier work
[2] = system: patient derived organoids; assay type: cell-based, human; settings: % of cells that died compared to control; organoids of the chemoresistant patient
Description: In addition to the agents listed above, several other drugs were tested to see if they influenced organoid growth. In this case, results are shown as the % of cells that died compared to control. […] This is consistent with the patient's actual lack of response to treatment with paclitaxel.

[3] = system: patient derived organoids; assay: Calculated IC50 of various agents on organoids derived from the chemoresistant patient (PD3D cell culture); assay type: cell-based, human; settings: organoids of the chemoresistant stage IV patient
Description: The IC50 values were calculated from such tests. This value indicates the dosage at which 50% of the organoids were killed due to treatment.

## Nc1nc2[nH]cc(CCc3ccc(C(=O)N[C@@H](CCC(=O)O)C(=O)O)cc3)c2c(=O)[nH]1 [Pemetrexed]
[1]
  Cmax: 291000 nM
[2]
  % Cell Death: No Response
[3]
  Calculated IC50 PD3D Cell Culture: Not Reached

## CC[C@]1(O)C[C@@H]2CN(CCc3c([nH]c4ccccc34)[C@@](C(=O)OC)(c3cc4c(cc3OC)N(C)[C@H]3[C@@](O)(C(=O)OC)[C@H](OC(C)=O)[C@]5(CC)C=CCN6CC[C@]43[C@@H]65)C2)C1 [Vinblastine]
[2]
  % Cell Death: 38%

## CCc1c2c(nc3ccc(OC(=O)N4CCC(N5CCCCC5)CC4)cc13)-c1cc3c(c(=O)n1C2)COC(=O)[C@]3(O)CC [Irinotecan]
[2]
  % Cell Death: 51%

## COc1cccc2c1C(=O)c1c(O)c3c(c(O)c1C2=O)C[C@@](O)(C(=O)CO)C[C@@H]3O[C@H]1C[C@H](N)[C@H](O)[C@H](C)O1 [Doxorubicin]
[2]
  % Cell Death: 39%

## CCN(CCO)CCCC(C)Nc1ccnc2cc(Cl)ccc12 (stereo not shown) [Hydroxychloroquine]
[1]; in vivo
  Cmax: 120 nM
[3]
  Calculated IC50 PD3D Cell Culture: Not Reached

## N#CC[C@H](C1CCCC1)n1cc(-c2ncnc3[nH]ccc23)cn1 [Ruxolitinib]
[1]
  Cmax: 587 nM

## Cc1[nH]c2ccccc2c1CCNCc1ccc(/C=C/C(=O)NO)cc1 [Panobinostat]
[1]; in vivo
  Cmax: 60 nM
[3]; Homo sapiens
  pIC50: 6.96

## CC[C@]1(O)C[C@H]2CN(CCc3c([nH]c4ccccc34)[C@@](C(=O)OC)(c3cc4c(cc3OC)N(C=O)[C@H]3[C@@](O)(C(=O)OC)[C@H](OC(C)=O)[C@]5(CC)C=CCN6CC[C@]43[C@@H]65)C2)C1 [vincristine]
[2]
  % Cell Death: No Response

## Nc1ccn([C@@H]2O[C@H](CO)[C@@H](O)C2(F)F)c(=O)n1 [Gemcitabine]
[2]
  % Cell Death: 56%

## O=P1(NCCCl)OCCCN1CCCl (stereo not shown) [ifosfamide]
[2]
  % Cell Death: No Response

## CO[C@@H](C)Cn1c(=O)n(C)c2cnc3ccc(-c4cncc(C(C)(C)O)c4)cc3c21 [Samotolisib]
[1]; in vivo
  Cmax: 600 nM
[3]; Homo sapiens
  pIC50: 6.06

## CN(Cc1cnc2nc(N)nc(N)c2n1)c1ccc(C(=O)N[C@@H](CCC(=O)O)C(=O)O)cc1 [methotrexate]
[2]
  % Cell Death: No Response

## O=C(O)C(Cl)Cl [Dichloracetate]
[1]; in vivo
  Cmax: 330000 nM
[3]
  Calculated IC50 PD3D Cell Culture: Not Reached

## CC(C)NCC(O)COc1cccc2ccccc12 (stereo not shown) [Propranolol]
[1]
  Cmax: 102 nM

## COc1cc2c(cc1O)CCN[C@]21CS[C@@H]2c3c(OC(C)=O)c(C)c4c(c3[C@H](COC1=O)N1[C@@H]2[C@H]2c3c(cc(C)c(OC)c3O)C[C@@H]([C@@H]1O)N2C)OCO4 [Trabectedine]
[2]
  % Cell Death: 32%

## COc1cc2nccc(Oc3ccc(NC(=O)NC4CC4)c(Cl)c3)c2cc1C(N)=O [Lenvatinib]
[1]
  Cmax: 1000 nM
[3]
  Calculated IC50 PD3D Cell Culture: Not Reached

## C[C@@H](Oc1cc(-c2cnn(C3CCNCC3)c2)cnc1N)c1c(Cl)ccc(F)c1Cl [Crizotinib]
[1]; in vivo
  Cmax: 230 nM
[3]
  Calculated IC50 PD3D Cell Culture: Not Reached

## O=C1O[C@H]([C@@H](O)CO)C(O)=C1O [Ascorbic Acid]
[1]; in vivo
  Cmax: 436000 nM
[3]
  Calculated IC50 PD3D Cell Culture: Not Reached

## Cc1ccc(C(=O)Nc2ccc(CN3CCN(C)CC3)c(C(F)(F)F)c2)cc1C#Cc1cnc2cccnn12 [Ponatinib]
[1]
  Cmax: 137 nM

## COc1cc([C@@H]2c3cc4c(cc3[C@@H](O[C@@H]3O[C@@H]5CO[C@@H](C)O[C@H]5[C@H](O)[C@H]3O)[C@H]3COC(=O)[C@H]23)OCO4)cc(OC)c1O [Etoposide]
[1]
  Cmax: 33900 nM
[2]
  % Cell Death: 33%
[3]; Homo sapiens, unit inferred
  pIC50: 4.06

## O=C(c1ccc(F)c(F)c1Nc1ccc(I)cc1F)N1CC(O)([C@@H]2CCCCN2)C1 [Cobimetinib]
[1]
  Cmax: 514 nM
[3]
  Calculated IC50 PD3D Cell Culture: Not Reached

## CC(=O)O[C@@]12CO[C@@H]1C[C@H](O)[C@@]1(C)C(=O)[C@H](O)C3=C(C)[C@@H](OC(=O)[C@H](O)[C@@H](NC(=O)OC(C)(C)C)c4ccccc4)C[C@@](O)([C@@H](OC(=O)c4ccccc4)[C@H]21)C3(C)C [Docetaxel]
[2]
  % Cell Death: No Response

## CO[C@@]12[C@H](COC(N)=O)C3=C(C(=O)C(C)=C(N)C3=O)N1C[C@@H]1N[C@@H]12 [mitomycin]
[2]
  % Cell Death: No Response

## N.N.[Cl][Pt][Cl] [Cisplatin]
[1]; in vivo
  Cmax: 3620 nM
[2]
  % Cell Death: 36%
[3]
  pIC50: 5.30

## O=C(c1cc(Cc2n[nH]c(=O)c3ccccc23)ccc1F)N1CCN(C(=O)C2CC2)CC1 [Olaparib]
[1]
  Cmax: 17500 nM
[3]
  Calculated IC50 PD3D Cell Culture: Not Reached

## O=P1(N(CCCl)CCCl)NCCCO1 (stereo not shown) [Cyclosphosphamide]
[2]
  % Cell Death: 32%

## CCCCCOC(=O)Nc1nc(=O)n([C@@H]2O[C@H](C)[C@@H](O)[C@H]2O)cc1F [Capecitabine (5-FU)]
[2]
  % Cell Death: 61%
[3]
  Calculated IC50 PD3D Cell Culture: Not Reached

## O=C1[O][Pt]2([NH][C@@H]3CCCC[C@H]3[NH]2)[O]C1=O [oxaliplatin]
[2]
  % Cell Death: No Response

## N[C@@H](CCC(=O)N[C@@H](CS)C(=O)NCC(=O)O)C(=O)O [Glutathione]
[1]; in vivo
  Cmax: 150000 nM
[3]
  Calculated IC50 PD3D Cell Culture: Not Reached

## COc1cccc2c1C(=O)c1c(O)c3c(c(O)c1C2=O)C[C@@](O)(C(=O)CO)C[C@@H]3O[C@H]1C[C@H](N)[C@@H](O)[C@H](C)O1 [epirubicin]
[2]
  % Cell Death: No Response

## C=C1C[C@@H]2CC[C@@]34C[C@H]5O[C@H]6[C@@H](O3)[C@H]3O[C@H](CC[C@@H]3O[C@H]6[C@H]5O4)CC(=O)C[C@@H]3[C@@H](OC)[C@@H](C[C@H](O)CN)O[C@H]3C[C@H]3O[C@@H](CC[C@@H]1O2)C[C@@H](C)C3=C [eribulin]
[2]
  % Cell Death: No Response

## Nc1cccc2c1C(=O)N(C1CCC(=O)NC1=O)C2=O (stereo not shown) [Pomalidomide]
[1]; in vivo
  Cmax: 270 nM
[3]
  Calculated IC50 PD3D Cell Culture: Not Reached

## CN(C)/N=N/c1[nH]cnc1C(N)=O [Dacarbazine]
[2]
  % Cell Death: 32%

## Bleomycin
[2]
  % Cell Death: 53%

## CCC1=C[C@@H]2CN(C1)Cc1c([nH]c3ccccc13)[C@@](C(=O)OC)(c1cc3c(cc1OC)N(C)[C@H]1[C@@](O)(C(=O)OC)[C@H](OC(C)=O)[C@]4(CC)C=CCN5CC[C@]31[C@@H]54)C2 [Vinorelbine]
[2]
  % Cell Death: 45%

## COc1cc2c(c(OC)c1OC)-c1ccc(OC)c(=O)cc1[C@@H](NC(C)=O)CC2 [Colchicine]
[1]; in vivo
  Cmax: 6 nM

## C[C@H]1[C@H](OC(=O)CCC(=O)O)O[C@@H]2O[C@@]3(C)CC[C@H]4[C@H](C)CC[C@@H]1[C@@]24OO3 [Artesunate]
[1]; in vivo
  Cmax: 8580 nM
[3]; Homo sapiens
  pIC50: 4.42

## CN(C)C(=N)N=C(N)N [Metformin]
[1]; in vivo
  Cmax: 10800 nM
[3]
  Calculated IC50 PD3D Cell Culture: Not Reached

## CO[C@H]1C(=O)[C@]2(C)[C@@H](OC)C[C@H]3OC[C@@]3(OC(C)=O)[C@H]2[C@H](OC(=O)c2ccccc2)[C@]2(O)C[C@H](OC(=O)[C@H](O)[C@@H](NC(=O)OC(C)(C)C)c3ccccc3)C(C)=C1C2(C)C [Cabazitaxel]
[2]
  % Cell Death: 37%

## Bevacizumab
[1]; in vivo
  Cmax: 920 nM
[3]
  Calculated IC50 PD3D Cell Culture: Not Reached

## CCN(CC)CCNC(=O)c1c(C)[nH]c(/C=C2\C(=O)Nc3ccc(F)cc32)c1C [Sunitnib]
[1]; in vivo
  Cmax: 90 nM
[3]
  Calculated IC50 PD3D Cell Culture: Not Reached

## O=C1c2c(O)ccc(O)c2C(=O)c2c(NCCNCCO)ccc(NCCNCCO)c21 [Mitoxantrone]
[2]
  % Cell Death: 50%

## O=C(Nc1ccc([N+](=O)[O-])cc1Cl)c1cc(Cl)ccc1O [Niclosamide]
[1]; in vivo
  Cmax: 310 nM
[3]; Homo sapiens
  pIC50: 6.22

## N[C@@H](Cc1ccc(N(CCCl)CCCl)cc1)C(=O)O [Melphalan]
[2]
  % Cell Death: 40%
